Reference: PMC2686615 (International Immunology, 2009)
Where a SMILES comes first, the peptide text is derived from it.

Biological target: soluble DQ8 proteins (HLA-DQ8, DQA1*0301/DQB1*0302) (Homo sapiens, UniProt P01909+P01920, A209T/A45G/C70Q/D89A/DUP78-78/E183D/E77G/F237L/G63E/H199R/I129T/K197E/L178F/L74F/L98V/Q57E/Q76R/S185I/S97I/T217I/T49S/V73L/Y58L)
Format: binding

Structure (SMILES)	IC50 [µM]
CC[C@H](C)[C@H](N)C(=O)N[C@@H](CC(C)C)C(=O)N[C@@H](CO)C(=O)N[C@H](C(=O)N[C@@H](Cc1c[nH]cn1)C(=O)N[C@H](C(=O)N[C@@H](C)C(=O)N[C@H](C(=O)N[C@@H](C)C(=O)N[C@@H](C)C(=O)N[C@@H](CO)C(=O)N[C@@H](CCC(N)=O)C(=O)N[C@@H](CC(=O)O)C(=O)N[C@@H](CO)C(=O)O)[C@@H](C)O)C(C)C)C(C)C [ZnT8 313–326] (H-ILSVHVATAASQDS-OH)	4.9
CC[C@H](C)[C@H](NC(=O)[C@H](CCC(=O)O)NC(=O)[C@H](C)NC(=O)[C@H](CCCNC(=N)N)NC(=O)[C@H](Cc1ccc(O)cc1)NC(=O)[C@H](Cc1c[nH]c2ccccc12)NC(=O)CNC(=O)[C@H](Cc1ccccc1)NC(=O)[C@@H](NC(=O)[C@H](CC(C)C)NC(=O)[C@H](CCCNC(=N)N)NC(=O)[C@H](CCCCN)NC(=O)[C@@H](N)CO)[C@@H](C)O)C(=O)N[C@@H](CC(C)C)C(=O)O [ZnT8 128–141] (H-SKRLTFGWYRAEIL-OH)	20.2
CC[C@H](C)[C@H](NC(=O)CNC(=O)[C@@H](NC(=O)[C@@H](N)CCCNC(=N)N)[C@@H](C)O)C(=O)N[C@@H](C)C(=O)N[C@@H](CCC(N)=O)C(=O)N[C@@H](C)C(=O)N[C@@H](CC(C)C)C(=O)N[C@@H](CO)C(=O)N[C@@H](CO)C(=O)N[C@@H](Cc1ccccc1)C(=O)N[C@@H](CC(=O)O)C(=O)N[C@@H](CC(C)C)C(=O)N[C@@H](Cc1c[nH]cn1)C(=O)O [ZnT8 330–343] (H-RTGIAQALSSFDLH-OH)	2.5
CC[C@H](C)[C@H](NC(=O)CNC(=O)[C@H](C)NC(=O)[C@H](CCC(N)=O)NC(=O)[C@@H](NC(=O)[C@H](CCC(N)=O)NC(=O)[C@H](Cc1ccc(O)cc1)NC(=O)[C@H](CC(=O)O)NC(=O)[C@@H]1CCCN1C(=O)[C@H](Cc1ccc(O)cc1)NC(=O)[C@@H](N)CC(C)C)[C@@H](C)CC)C(=O)N[C@@H](CCSC)C(=O)N[C@H](C(=O)N[C@H](C(=O)O)[C@@H](C)O)[C@@H](C)CC [ZnT8 166–179] (H-LYPDYQIQAGIMIT-OH)	0.7
CC[C@H](C)[C@H](NC(=O)[C@H](C)N)C(=O)N[C@@H](CC(C)C)C(=O)N[C@H](C(=O)N[C@@H](CC(=O)O)C(=O)N[C@@H](C)C(=O)N[C@@H](C)C(=O)N[C@@H](Cc1c[nH]cn1)C(=O)N[C@@H](CC(C)C)C(=O)N[C@@H](CC(C)C)C(=O)N[C@H](C(=O)N[C@@H](CC(=O)O)C(=O)N[C@@H](CC(C)C)C(=O)N[C@H](C(=O)O)[C@@H](C)O)[C@@H](C)CC)[C@@H](C)O [ZnT8 98–111] (H-AILTDAAHLLIDLT-OH)	7.2
CC[C@H](C)[C@H](NC(=O)[C@H](Cc1c[nH]cn1)NC(=O)[C@H](CC(C)C)NC(=O)[C@H](CO)NC(=O)[C@H](Cc1c[nH]cn1)NC(=O)[C@@H](NC(=O)[C@H](CO)NC(=O)[C@@H](NC(=O)[C@@H](NC(=O)CNC(=O)[C@H](CC(=O)O)NC(=O)[C@@H](NC(=O)[C@H](C)N)C(C)C)C(C)C)[C@@H](C)CC)C(C)C)C(=O)N[C@@H](Cc1c[nH]c2ccccc12)C(=O)O [ZnT8 292–305] (H-AVDGVISVHSLHIW-OH)	18
CC[C@H](C)[C@H](NC(=O)[C@H](CCC(N)=O)NC(=O)[C@@H](NC(=O)[C@@H](NC(=O)[C@@H](N)CC(C)C)[C@@H](C)O)[C@@H](C)CC)C(=O)N[C@@H](CCC(=O)O)C(=O)N[C@@H](CO)C(=O)N[C@@H](C)C(=O)N[C@@H](C)C(=O)N[C@@H](CC(=O)O)C(=O)N[C@@H](CCC(N)=O)C(=O)N[C@@H](CC(=O)O)C(=O)N1CCC[C@H]1C(=O)N[C@@H](CO)C(=O)O [ZnT8 345–358] (H-LTIQIESAADQDPS-OH)	2.5
